{"source": "patent US20020165270A1", "about": "“Use of a pharmaceutical composition for treating and/or preventing ischemia” (priority 1997, published 2002)", "key": {"[1]": {"test_system": "mitochondria isolated from the livers of untreated rats", "experiment": "RCR of mitochondria isolated from livers of untreated rats, preincubated one hour with the medicaments", "type": "biochemical, rat", "conditions": "for Protective effect on the RCR (%): class I molecules, final concentrations: Ginkor Fort 0.3 mg/ml, Bilobalide 0.8 μg/ml, Reparil 75 ng/ml, Naphthoquinone 10^−7 M, Praxilene 10^−7 M, one hour preincubation; for way in which the RCR is increased (class I / class II): liver mitochondria of untreated rats preincubated for one hour", "method": "(§1) Different concentrations of active compounds of the invention (bilobalide) were tested on the RCR of the mitochondria which were isolated from rat brains. Five concentrations were employed: 4, 6, 8, 10 and 12 mg/kg of treated patient (rat). The rats were given these doses of bilobalide orally for 14 days. The mitochondria were isolated using the method described by Nowicki et al. (J. Cerebral Blood Flow and Metabolism, 2, pp. 33-40 (1982)). The respiration of the mitochondria is measured in a Clark oxygen electrode which is connected to a recording device. The RCR represents the respiratory control. It denotes the ratio between the consumption of oxygen in the presence of endogenous substrates (glutamate/malate) and the consumption after the ADP has been phosphorylated to ATP. This technique was developed by Chance and Williams (Nature, 175, pp. 1120-1121 (1955)). A dosedependent effect is obtained, with an increase of the RCR, of 3.7 in the case of the controls, to an RCR of 4.6 in the case of the 8 and 10 mg/kg concentrations. A maximum increase of 24% is obtained at 10 mg/kg.\nEach of the active compounds of the invention can, like bilobalide, increase the RCR of mitochondria which have been isolated from the livers of untreated rats when the mitochondria are preincubated for one hour in the presence of these medicaments. The active compounds can therefore act directly on the mitochondria."}, "[2]": {"test_system": "complex I of the mitochondria", "experiment": "Protection of complex I inhibited by Amytal, measured via the RCR", "type": "biochemical", "conditions": "for Protection of complex I (%): complex I 58% inhibited by 0.5 mM Amytal, 60 minute incubation, Ginkor Fort 0.3 mg/ml, Bilobalide 0.8 μg/ml, Reparil 75 ng/ml, Nafthoquinone 10^−7 M, Praxilene 10^−7 M, no medicament = 0%", "method": "(§2) The process of the oxidative phosphorylation of ATP is a complex process which involves different enzyme complexes or electron transporters, which generate a proton gradient (complexes I, III and IV), ATP synthases (complex V), which is directly responsible for synthesizing ATP, and adenine translocase, which is the transporter which is required for importing ADP and exporting ATP (FIG. 4).\nComplex I of the mitochondria was 58% inhibited by the presence of 0.5 mM Amytal. Under these conditions, the presence of the molecules at the indicated concentrations (60 minute incubation) results in an inhibition which is markedly less pronounced, with this having been expressed in percentage protection as compared with the mitochondria without medicament, which are regarded as having 0% protection."}, "[3]": {"test_system": "complex III of the mitochondria", "experiment": "Protection of complex III inhibited by a specific inhibitor, measured via the RCR", "type": "biochemical", "conditions": "Ginkor Fort 0.3 mg/ml, Bilobalide 0.8 μg/ml, Reparil 75 ng/ml, Nafthoquinone 10^−7 M, Praxilene 10^−7 M", "excerpt": "as §2"}, "[4]": {"test_system": "brain mitochondria", "experiment": "RCR of brain mitochondria of orally treated rats, normal conditions", "type": "in vivo, rat", "method": "as §1"}, "[5]": {"test_system": "brain mitochondria", "experiment": "RCR of brain mitochondria of treated rats after 15 minute ischemia", "type": "in vivo, rat", "conditions": "10 mg/kg per os for 14 days; 15 minute ischemia by decapitation; glutamate/malate; controls 3", "method": "A 15 minute ischemia was performed on control rats and rats which have been treated with active compounds of the invention (bilobalides) for 14 days. The ischemia is performed by decapitation. The rats were treated per os with bilobalide doses of 10 mg/kg for 14 days. When the RCR is measured in the presence of glutamate/malate in the case of a 15 minute ischemia, an RCR of 3 is observed in the case of the controls, with an RCR of 3.9 being observed in the case of the treated rats. The active compound therefore has a protective action on the decrease in respiratory activity which is induced by the ischemia. This protection is manifested through the activity of complex I and of the mitochondrial transport chain. The level of respiratory control which is measured in the presence of glutamate/malate indirectly mirrors the activity of complex I of the electron transfer chain."}, "[6]": {"test_system": "mitochondrial complex I", "experiment": "Activity of mitochondrial complex I (ferricytochrome C reduction) in brain mitochondria of treated rats", "type": "in vivo, rat", "conditions": "10 mg/kg per os for 14 days; after 15 minute ischemia of the brain; controls 36", "method": "The measurement carried out on the mitochondrial complex I was performed by first of all sonicating the mitochondria in order to enable the assay substrates to gain access to the complex I. The latter is assayed by following the reduction of ferricytochrome C at 550 nm. The mitochondrial suspension, which is present in a […] K phosphate buffer, pH 7.4, containing MgCl2, 10 μm of cytochrome C and 2.5 mg of bovine albumin/ml, is sonicated for 30 seconds at 0° C. 2 mM of KCW [sic] is added and the reaction is started by adding 7.5 mM NADH. The mitochondria are incubated at 37° C. and the reduction of the ferricyanide [sic] is followed at 550 nm. A correction is made for the reduction of the cytochrome C in the presence of rotenone, which inhibits complex I. The results are expressed in μmol of ferricytochrome C reduced per minute.\nThe activity of complex I was measured on the mitochondria of rats which had been treated per os for 14 days with 10 mg of bilobalide/kg, and after a 15minute ischemia of the brain. An activity of 36 mU/mg of protein is obtained in the case of the control rats, whereas the mitochondria from treated rats have an activity of 44 mU/mg of protein."}, "[7]": {"test_system": "liver mitochondria", "experiment": "RCR of liver mitochondria of rats treated per os", "type": "in vivo", "conditions": "rat liver mitochondria; 8 mg/kg per os for 14 days; controls 7.6", "method": "(§3) The active compound of the invention (bilobalide) was administered per os to rats for 14 days at concentrations of 8 mg/kg of patient (rat). The liver mitochondria of these rats were isolated using the method described by Remacle (J. Cell. Biol. 79, 291, 1978). […] A 10 minute ischemia was performed on the livers by perfusion in a medium consisting of 0.137 M NaCl, 5.4 mM KCl, 0.8 mM MgSO4, 11 mM glucose, 0.34 mM Na2HP03, 24.4 mM NaHCO3, 6.35 mM KH2PO4 and 8 mg of bilobalide/l. The medium is first of all degassed under an atmosphere containing 95% N2 and 5% CO2. The mitochondria are isolated and their respiratory activity is determined."}, "[8]": {"test_system": "liver mitochondria", "experiment": "RCR of liver mitochondria after 10 minute ischemia of the perfused liver", "type": "in vivo, rat", "conditions": "8 mg/kg per os for 14 days; 10 minute liver ischemia, perfusion medium with 8 mg of bilobalide/l; controls 3.73", "method": "as §3\nFor the controls, the rats were given water for 14 days and the livers were perfused with the same solution as for the tests."}}}
{"compound": "O=C1C=CC(=O)c2ccccc21", "note": "[Naphthoquinone, Nafthoquinone]", "values": [{"measurement": "Protective effect on the RCR (%)", "setting": "[1]", "value": "+19.7%"}, {"measurement": "way in which the RCR is increased (class I / class II)", "setting": "[1]", "value": "increase the RCR by decreasing stage 4 of respiration"}, {"measurement": "Protection of complex I (%)", "setting": "[2]", "value": 14.1, "unit": "%"}, {"measurement": "Protection of complex III (%)", "setting": "[3]", "value": 46.6, "unit": "%"}]}
{"compound": "aescin", "values": [{"measurement": "way in which the RCR is increased (class I / class II)", "setting": "[1]", "value": "increase the RCR by decreasing stage 4 of respiration"}]}
{"compound": "o-(hydroxyethyl) rutosides [hydroxyethylrutosides]", "values": [{"measurement": "way in which the RCR is increased (class I / class II)", "setting": "[1]", "value": "increase the RCR by increasing stage 3 of respiration"}]}
{"compound": "CCC1(CCC(C)C)C(=O)NC(=O)NC1=O", "note": "[Amytal]", "values": [{"measurement": "inhibition of complex I of the mitochondria", "setting": "[2]; 0.5 mM Amytal", "value": 58, "unit": "%"}]}
{"compound": "COc1ccc(-c2cc(=O)c3c(O)cc(O[C@@H]4O[C@H](CO[C@@H]5O[C@@H](C)[C@H](O)[C@@H](O)[C@H]5O)[C@@H](O)[C@H](O)[C@H]4O)cc3o2)cc1O", "note": "[diosmin]", "values": [{"measurement": "way in which the RCR is increased (class I / class II)", "setting": "[1]", "value": "increase the RCR by decreasing stage 4 of respiration"}]}
{"compound": "CC(C)(C)[C@]1(O)CC2OC(=O)CC23C(=O)OC2OC(=O)[C@H](O)C231", "note": "(stereo partly drawn) [Bilobalide, bilobalide]", "values": [{"measurement": "maximum increase of the RCR", "setting": "[4]; 10 mg/kg orally for 14 days, versus controls", "value": 24, "unit": "%"}, {"measurement": "RCR", "setting": "[4]; rat brain mitochondria, 8 and 10 mg/kg orally for 14 days, glutamate/malate, controls 3.7", "value": 4.6}, {"measurement": "RCR", "setting": "[5]", "value": 3.9}, {"measurement": "activity of complex I", "setting": "[6]", "value": "44 mU/mg of protein"}, {"measurement": "RCR", "setting": "[7]", "value": 13.25}, {"measurement": "RCR", "setting": "[8]", "value": 5.24}, {"measurement": "Protective effect on the RCR (%)", "setting": "[1]", "value": "+22.7%"}, {"measurement": "way in which the RCR is increased (class I / class II)", "setting": "[1]", "value": "increase the RCR by decreasing stage 4 of respiration"}, {"measurement": "Protection of complex I (%)", "setting": "[2]", "value": 27.5, "unit": "%"}, {"measurement": "Protection of complex III (%)", "setting": "[3]", "value": 47.9, "unit": "%"}]}
